Here are results for 14 compounds from patent US4162253A, “Acaricidal agents” (Pfizer Inc., priority 1975, dated 1979).

In this assay the test system is Adult Boophilus microplus. The assay is described as follows: Topical application test on fully engorged adult Boophilus microplus ticks; overall reduction in anticipated reproduction (eggs laid and hatching). The conditions noted are these: Rhipicephalus microplus, read-out: In Vitro Activity (topical application) vs. Adult Boophilus microplus % Effect; for inhibition at 0.5 µg/tick: 0.5 μg/tick; for inhibition at 1 µg/tick: 1 μg/tick; for inhibition at 2 µg/tick: 2 μg/tick; for inhibition at 4 µg/tick: 4 μg/tick; for inhibition at 8 µg/tick: 8 μg/tick; for inhibition at 10 µg/tick: 10 μg/tick. It is filed as in vivo. On the procedure:
In one test, five freshly collected, fully engorged Boophilus microplus adult ticks are used for each acaricidal compound. Using a micro-pipette, 10 micro-liters of a solution containing 10 micro-grams of the acaricidal compound in ethanol or acetone, is applied to the dorsal surface of each of the ticks. The treated ticks are placed in weighted 1"×2" glass vials, weighted and stored at 26° C. and 80% relative humidity in plastic boxes for two weeks. The ticks are then removed from the vials and the vials weighted to give the weight of eggs laid by the ticks. Any reduction in the egg laying of the treated ticks is caculated as a percentage of the eggs laid by untreated control ticks.
The eggs are returned to the incubator for a further 3 weeks after which time the percentage of eggs hatching is estimated.
The percentage effect is calculated as the overall reduction in the anticipated reproduction of the ticks using the weight of eggs laid and the percentage of eggs hatching.
The test may be repeated using smaller amounts of the acaricidal compound for sufficiently active compounds.
The activity of many of the compounds of the Examples detailed hereinafter against the tick Boophilus microplus has been determined.

`CCCCCCCCCCCCCCCC[N+]1=C2SC(C)=C(CC)N2CCC1` [Example 1, 8-cetyl-3-ethyl-2-methyl-6,7-dihydro[5H]thiazolo[3,2-a]pyrimidinium bromide]: the inhibition at 0.5 µg/tick was 24%, the inhibition at 1 µg/tick stood at 59%, the inhibition at 2 µg/tick stood at 99% and the inhibition at 4 µg/tick was found to be 100%. The inhibition at 8 µg/tick was determined as 100% and the inhibition at 10 µg/tick came out at 100%.

For the compound `CCCCCCCCCCCCCCC[N+]1=C2SC=C(c3ccccc3)N2CCC1` [Example 2], the inhibition at 1 µg/tick stood at 16%, the inhibition at 2 µg/tick came out at 67%, the inhibition at 4 µg/tick was determined as 77% and the inhibition at 8 µg/tick was determined as 100%. Also, the inhibition at 10 µg/tick worked out at 100%.

As to `CCCCCCCCCCCCCCCC[N+]1=C2SC=C(c3ccccc3)N2CCC1` [Example 3], the inhibition at 0.5 µg/tick is 2%, the inhibition at 1 µg/tick came out at 13%, the inhibition at 2 µg/tick is 26% and the inhibition at 4 µg/tick was 90%. The inhibition at 8 µg/tick was determined as 97% and the inhibition at 10 µg/tick came out at 100%.

For the compound `CCCCCCCCCCCCCC[N+]1=C2SC(C)=C(CC)N2CCC1` [Example 4], the inhibition at 2 µg/tick was 12%, the inhibition at 4 µg/tick came out at 75%, the inhibition at 8 µg/tick was found to be 100% and the inhibition at 10 µg/tick was found to be 83%.

Regarding `CCCCCCCCCCCCCC[N+]1=C2SC=C(C)N2CCC1` [Example 5], the inhibition at 1 µg/tick is 0%, the inhibition at 2 µg/tick is 4%, the inhibition at 4 µg/tick was 32% and the inhibition at 8 µg/tick came to 63%. In addition, the inhibition at 10 µg/tick amounted to 65%.

As to `CCCCCCCCCCCCCCCCC[N+]1=C2SC=C(c3ccccc3)N2CCC1` [Example 6], the inhibition at 1 µg/tick worked out at 7%, the inhibition at 2 µg/tick was found to be 43%, the inhibition at 4 µg/tick was 79% and the inhibition at 8 µg/tick came out at 98%. Besides, the inhibition at 10 µg/tick was determined as 100%.

As to `CCCCCCCCCCCCCCCC[N+]1=C2SC(C)=C(c3ccccc3)N2CCC1` [Example 7, 8-cetyl, 2-methyl-3-phenyl-6,7-dihydro[5H]thiazolo[3,2-a]pyrimidinium bromide], the inhibition at 0.5 µg/tick was 31%, the inhibition at 1 µg/tick is 54%, the inhibition at 2 µg/tick was found to be 92% and the inhibition at 4 µg/tick was 99%. In addition, the inhibition at 8 µg/tick was 100% and the inhibition at 10 µg/tick is 100%.

As for `CCCCCCCCCCCCCCCCCC[N+]1=C2SC=C(C)N2CCC1` [Example 8], the inhibition at 10 µg/tick is 26%.

Regarding `CCCCCCCCCCCCCCCCC[N+]1=C2SC=C(C)N2CCC1` [Example 9], the inhibition at 10 µg/tick came out at 42%.

In the case of `CCCCCCCCCCCCCCC[N+]1=C2SC=C(C)N2CCC1` [Example 10], the inhibition at 10 µg/tick was 72%.

In the case of `CCCCCCCCCCCCCCC[N+]1=C2SC(C)=C(c3ccccc3)N2CCC1` [Example 11], the inhibition at 0.5 µg/tick came out at 30%, the inhibition at 1 µg/tick stood at 36%, the inhibition at 2 µg/tick amounted to 73% and the inhibition at 4 µg/tick was determined as 100%. The inhibition at 8 µg/tick came to 100% and the inhibition at 10 µg/tick turned out to be 100%.

Turning to `CCCCCCCCCCCCCCCCCC[N+]1=C2SC(C)=C(c3ccccc3)N2CCC1` [Example 12], the inhibition at 0.5 µg/tick was found to be 16%, the inhibition at 1 µg/tick turned out to be 19%, the inhibition at 2 µg/tick turned out to be 22% and the inhibition at 4 µg/tick came out at 38%. For the same compound, the inhibition at 8 µg/tick was 87% and the inhibition at 10 µg/tick was determined as 100%.

Regarding `CCCCCCCCCCCCCC[N+]1=C2SC(C)=C(c3ccccc3)N2CCC1` [Example 13], the inhibition at 0.5 µg/tick was found to be 0%, the inhibition at 1 µg/tick is 6%, the inhibition at 2 µg/tick turned out to be 21% and the inhibition at 4 µg/tick was found to be 99.4%. Besides, the inhibition at 8 µg/tick was 99.9% and the inhibition at 10 µg/tick was 100%.

With `CCCCCCCCCCCCCCCCCC[N+]1=C2SC=C(c3ccccc3)N2CCC1` [Example 14], the inhibition at 10 µg/tick is 47%.
